Assay results from US9963486B2, “Peptidomimetics for treating HER2-overexpressed cancer” (Board of Supervisors for the University of Louisiana System, priority 2014, dated 2018).
Where two headings read alike, the source gives them in different places. Each block holds one compound with its values, some of them ahead of it. Numbered stars: 1 amine (or outer) side, 2 acyl side, 3 side chain; on linkers, the order of the positions; unused ones are H or OH. Square brackets hold non-standard residues; d marks the D form. Peptide text beside a SMILES is read from it. βAla(3R-(1-naphthyl)) = O=C(C[C@@H](N[*:1])c1cccc2ccccc12)[*:2]; X1 = O=C(CC(N[*:1])c1cccc2ccccc12)[*:2]

How the values were obtained:
[1] = system: SKOV-3 HER2-overexpressing ovarian cancer cells
Description: (§1) Compounds were tested for antiproliferative activity against several cancer cell lines and a control cell line. […] CP was the control peptidomimetic. […] SKOV-3 and Calu-3 are HER2-overexpressing ovarian and lung cancer cells, respectively. (+) and (−) indicate HER2-positive and HER2-negative, respectively.

[2] = system: SKBR-3 HER2-overexpressing breast cancer cells
Description: as §1

[3] = system: BT-474 HER2-overexpressing breast cancer cells
Description: as §1

[4] = system: Calu-3 HER2-overexpressing lung cancer cells
Description: as §1

[5] = system: MCF-7 breast cancer cells that do not overexpress HER2
Description: as §1

[6] = system: BT-474 HER2-overexpressing breast cancer cells; assay: cells; conditions: Homo sapiens, BT-474, read-out: IC50 BT-474 (+)
Description: as §1

[7] = system: HER2-expressing breast tumors (BT-474 cells); assay: BT-474 xenograft model of breast cancer, tumor volume; assay type: in vivo, nude mice; conditions: 4 mg/kg injected just below the tumor, twice a week for 19 days; Days 9-19
Description: We evaluated the ability of Compound 18 to suppress HER2-expressing breast tumors in a xenograft model of breast cancer. Breast cancer tumors were induced in nude mice by injecting 2 million BT-474 cells; these estrogen-dependent cancer cells were stimulated by an implanted estrogen pellet. Compound 9, Compound 18, vehicle, or lapatinib (positive control) were injected just below the tumor at a dose of 4 mg/kg, twice a week for 19 days, for a total of 6 injections. Mice weight and health were monitored daily. Tumor size was measured with Vernier calipers. Tumor volume was estimated using the formula Volume=length×0.5 (width)^2. At the end of the experimental period, mice were euthanized and tumor sections were removed and frozen for further analysis. FIG. 9 depicts tumor volume as a function of time for the various treatments.

[8] = system: MCF-10A normal breast epithelial cell line
[9] = mouse, serum
Description: (§2) Compounds were incubated in mouse serum for various times, and then extracted using a solid-phase extraction technique. The compounds were analyzed with electrospray-mass spectrometry. A known amount of a freshly-prepared internal standard was used for calibration.

[10] = Stability in mouse serum (electrospray-mass spectrometry)
Description: as §2

[11] = read-out: IC50 SKOV-3 (+), antiproliferative activity, HER2-positive ovarian cancer cells, Table 3
[12] = read-out: IC50 SKBR-3 (+), antiproliferative activity, HER2-positive breast cancer cells, Table 3
[13] = read-out: IC50 BT-474 (+), antiproliferative activity, HER2-positive breast cancer cells, Table 3
[14] = read-out: IC50 Calu-3 (+), antiproliferative activity, HER2-positive lung cancer cells, Table 3
[15] = read-out: IC50 MCF-7 (−), antiproliferative activity, HER2-negative breast cancer cells, Table 3

Compound: H2N-K(3-amino-biphenyl propionic acid)F-OH [CP, reference compound]
IC50 [1, 11]: > 100000 nM
IC50 [2, 12]: > 100000 nM
IC50 [3, 13]: > 100000 nM
IC50 [4, 14]: > 100000 nM
IC50 [5, 15]: > 100000 nM

Compound: N=C(N)NCCC[C@@H]1NC(=O)[C@H]2CCCN2C(=O)[C@@H]2CCCN2C(=O)[C@H](CCCNC(=N)N)NC(=O)CC(c2cccc3ccccc23)NC(=O)[C@H](Cc2ccccc2)NC(=O)[C@H](CC(=O)O)NC(=O)[C@H](CC(=O)O)NC(=O)[C@H](Cc2ccccc2)NC(=O)CC(c2cccc3ccccc23)NC1=O (some centres unmarked) [Compound 18, Cyclo(1,10)PpR(Anapa)FDDF(Anapa)R] (cyclo(P[dP]R[X1]FDDF[X1]R))
IC50 [1, 11]: 853 ± 102 nM
IC50 [2, 12]: 194 ± 46 nM
IC50 [4, 14]: 18 ± 13 nM
toxicity to normal cells [8]: not toxic to normal cells
IC50 ([8]; read-out: IC50 MCF-10A, antiproliferative activity, normal breast epithelial cell line): 40000 nM
half-life [9]: > 48 h
IC50 [5, 15]: > 50000 nM

Compound: N=C(N)NCCC[C@H]1NC(=O)[C@H]2CCCN2C(=O)[C@@H]2CCCN2C(=O)[C@@H](CCCNC(=N)N)NC(=O)C[C@H](c2cccc3ccccc23)NC(=O)[C@@H](Cc2ccccc2)NC(=O)[C@@H](CC(=O)O)NC(=O)[C@@H](CC(=O)O)NC(=O)[C@@H](Cc2ccccc2)NC(=O)C[C@H](c2cccc3ccccc23)NC1=O [Compound 38, Cyclo(Ppr-(R)Anapa-fddf-(R)Anapa-r] (cyclo(P[dP][dR][βAla(3R-(1-naphthyl))][dF][dD][dD][dF][βAla(3R-(1-naphthyl))][dR]))
IC50 ([2]; read-out: Antiproliferative activity IC50 SKBR-3, Table 5): 800 ± 70 nM
IC50 ([3]; read-out: Antiproliferative activity IC50 BT-474, Table 5): 860 ± 50 nM
IC50 ([4]; read-out: Antiproliferative activity IC50 Calu-3, Table 5): 550 ± 200 nM
IC50 ([5]; read-out: Antiproliferative activity IC50 MCF-7, Table 5): 13500 ± 700 nM

Compound: N=C(N)NCCC[C@H](N)C(=O)NC(CC(=O)N[C@@H](Cc1ccccc1)C(=O)O)c1cccc2ccccc12 (some centres unmarked) [Compound 5, H2N-R(Anapa)F-OH]
half-life ([10]; mouse, serum): 2 to 3 h
IC50 [1, 11]: 658 ± 40 nM
IC50 [2, 12]: 396 ± 22 nM

Now from value to compound, other results behind:

IC50 [1]: 373 ± 150 nM
IC50 [2]: 373 ± 150 nM
IC50 [3]: 595 ± 270 nM
IC50 [4]: 1090 ± 310 nM
IC50 [5]: > 50000 nM
Compound: CC(=O)N[C@H](Cc1ccccc1)C(=O)NC(CC(=O)N[C@H](CCCNC(=N)N)C(N)=O)c1cccc2ccccc12 (some centres unmarked) [Compound 21, Ac-f(Anapa)r-NH2]

IC50 [6]: 25 ± 4 nM
Compound: CS(=O)(=O)CCNCc1ccc(-c2ccc3ncnc(Nc4ccc(OCc5cccc(F)c5)c(Cl)c4)c3c2)o1 [Lapatinib, reference compound]
tumor volume compared to control [7]: decreased tumor volume

IC50 [2]: 500 ± 280 nM
IC50 [3]: 400 ± 140 nM
IC50 [4]: 900 ± 200 nM
IC50 [5]: > 100000 nM
Compound: N=C(N)NCCC[C@@H]1NC(=O)[C@H]2CCCN2C(=O)[C@@H]2CCCN2C(=O)[C@H](CCCCN)NC(=O)C[C@H](c2cccc3ccccc23)NC(=O)[C@H](Cc2ccccc2)NC(=O)[C@H](CC(=O)O)NC(=O)[C@H](CC(=O)O)NC(=O)[C@H](Cc2ccccc2)NC(=O)C[C@H](c2cccc3ccccc23)NC1=O [Compound 33, Cyclo(PpR-(R)Anapa-FDDF-(R)Anapa-K]

IC50 [3]: 850 ± 70 nM
Compound: N=C(N)NCCC[C@H]1NC(=O)[C@H]2CCCN2C(=O)[C@@H]2CCCN2C(=O)[C@@H](CC(=O)O)NC(=O)[C@@H](Cc2ccccc2)NC(=O)C[C@H](c2cccc3ccccc23)NC(=O)[C@@H](CCCNC(=N)N)NC(=O)[C@@H](CC(=O)O)NC(=O)[C@@H](Cc2ccccc2)NC(=O)C[C@H](c2cccc3ccccc23)NC1=O [Compound 41, Cyclo(Ppr-(R)Anapa-fdr-(R)Anapa-fd] (cyclo(P[dP][dR][βAla(3R-(1-naphthyl))][dF][dD][dR][βAla(3R-(1-naphthyl))][dF][dD]))

time within which degraded in mouse serum ([10]; mouse serum, FIG. 10): ≤ 24 h
IC50 [1, 11]: 417 ± 55 nM
IC50 [2, 12]: 445 ± 32 nM
IC50 [3, 13]: 785 ± 11 nM
IC50 [4, 14]: 847 ± 71 nM
IC50 [5, 15]: 45000 nM
Compound: H2N-R(Anapa)FD-OH [Compound 9]
tumor volume compared to control [7]: decreased tumor volume
